What all share (assay): relative viability (nuclei count vs DMSO), 5 days (fraction); higher = more cells survive
Compound in experiment [1]: CC1=C(CC(=O)O)c2cc(F)ccc2/C1=C\c1ccc([S+](C)[O-])cc1 [Sulindac] + CC1(C)CCC(c2ccc(Cl)cc2)=C(CN2CCN(c3ccc(C(=O)NS(=O)(=O)c4ccc(N[C@H](CCN5CCOCC5)CSc5ccccc5)c(S(=O)(=O)C(F)(F)F)c4)cc3)CC2)C1 [Navitoclax] (partner 0.5 µM)
The procedure, abridged:
(§1)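 One day after seeding in 1536-well plates, lung cancer cell lines were dosed by pin tool. Dosing was either single-drug or a fixed anchor-drug dose plus five library-drug doses (not always all listed) in √10 steps. After 5 days, nuclei were stained in one fix-and-stain step and counted on 4× images, and relative viability is the nuclei count of treated wells over that of vehicle wells, given as the median of duplicate plates.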

Compound in experiment [2]: CC1=C(CC(=O)O)c2cc(F)ccc2/C1=C\c1ccc([S+](C)[O-])cc1 [Sulindac] + CS(=O)(=O)CCNCc1ccc(-c2ccc3ncnc(Nc4ccc(OCc5cccc(F)c5)c(Cl)c4)c3c2)o1 [Lapatinib] (partner 2 µM)
The method, boiled down: as §1

Compound in experiment [3]: CN[C@@H]1C[C@H]2O[C@@](C)([C@@H]1OC)n1c3ccccc3c3c4c(c5c6ccccc6n2c5c31)C(=O)NC4 [Staurosporine] + Cc1nc(NC(=O)N2CCC[C@H]2C(N)=O)sc1-c1ccnc(C(C)(C)C(F)(F)F)c1 [Alpelisib] (partner 2 µM)
The procedure, abridged:
as §1

Compound in experiment [4]: CN[C@@H]1C[C@H]2O[C@@](C)([C@@H]1OC)n1c3ccccc3c3c4c(c5c6ccccc6n2c5c31)C(=O)NC4 [Staurosporine] + Nc1nc2[nH]cc(CCc3ccc(C(=O)N[C@@H](CCC(=O)O)C(=O)O)cc3)c2c(=O)[nH]1 [Pemetrexed] (partner 0.2 µM)
The procedure, abridged:
as §1

Here are results for one cell line from the supplement of paper PMC10307832.

Regarding UMC-11, the relative viability in experiment [1] (first compound 0.08 µM) was determined as 0.3; in experiment [1] (first compound 0.253 µM), 0.305; in experiment [1] (first compound 0.8 µM), 0.309; in experiment [1] (first compound 2.53 µM), 0.292; in experiment [1] (first compound 8 µM) it was 0.38; in experiment [2] (first compound 0.08 µM), 1.16. Also, the relative viability was 1.12 in experiment [2] (first compound 0.253 µM); 0.758 in experiment [2] (first compound 0.8 µM); 0.946 in experiment [2] (first compound 2.53 µM); 1.15 in experiment [2] (first compound 8 µM); 0.882 in experiment [3] (first compound 0.005 µM); 0.427 in experiment [3] (first compound 0.01581 µM). In addition, the relative viability in experiment [3] (first compound 0.05 µM) worked out at 0.461; in experiment [3] (first compound 0.1581 µM), 0.145; in experiment [3] (first compound 0.5 µM), 0.0643; in experiment [4] (first compound 0.005 µM), 0.695; in experiment [4] (first compound 0.01581 µM), 0.472; in experiment [4] (first compound 0.05 µM), 0.387. Also, the results for the relative viability in experiment [4] (first compound 0.1581 µM) and in experiment [4] (first compound 0.5 µM) were 0.104 and 0.0932, respectively.
